According to patent US20230090111A1, “CXCL8 INHIBITOR AND PHARMACEUTICAL COMPOSITION THEREOF FOR USE IN THE TREATMENT OF CANCER-RELATED FATIGUE” (Dompe' farmaceutici SpA, priority 2020, published 2023):
“And” between values parts separate entries of the source, which are not always exact repeats. Equal entries are not always repeated. “Also recorded” adds a separate entry of the source.

Columns and labels:
[1] = tested on: patients with metastatic triple negative breast cancer (TNBC); assay: Randomized, double-blind, placebo-controlled phase 2 study (FRIDA): fatigue as treatment emergent adverse event (NCI-CTCAE 4.03); type: in vivo, human
Description: The study was conducted with 56 sites actively screening patients in the United States of America, Italy, France, Belgium, Spain, Czech Republic and Poland.
Two sub-groups of patients were studied: newly diagnosed metastatic patients and patients that had relapsed following a prior (neo)adjuvant chemotherapy regimen. Amongst other inclusion criteria, to be able to participate in the study, subjects were to have a Zubrod/ECOG Performance Status of 0 or 1 (0=Fully active; no performance restrictions 1=Strenuous physical activity restricted; fully ambulatory and able to carry out light work).
There was no limit to study treatment duration and patients remained in the study until disease progression, withdrawal of consent or unacceptable toxicity, whichever occurred first.
Investigators reported any adverse events experienced by study patients according to the NCI-CTCAE version 4.03. Toxicity was defined according to the grading scale for each parameter. According to this scale, the presence and intensity of fatigue is defined as follows: • Grade 1: Fatigue relieved by rest • Grade 2: Fatigue not relieved by rest, limiting instrumental ADL • Grade 3: Fatigue not relieved by rest, limiting self care ADL • where instrumental ADL refers to preparing meals, shopping for groceries or clothes, using the telephone, managing money, and the like and self care ADL refer to bathing, dressing and undressing, feeding self, using the toilet, taking medications, but not bedridden.
The distributions of fatigue as a treatment emergent adverse event (TEAE) irrespective of relationship with study treatment were compared among treatment groups using the Chi-squared test (Table 1).

[2] = tested on: cancer-related fatigue (CRF); conditions: A. Spathis et al., 2014; cited from earlier work
[3] = oclacitinib alone; cited from earlier work
[4] = tested on: dogs with osteosarcoma metastatic to the lungs; assay: Prospective pilot study: QoL of dogs given doxorubicin, oclacitinib and ladarixin; type: in vivo; parameters: mqol gooddavs / mqol_sleeps / mqol_depressed / mqol_eats / mqol_drinks / mqol_moves / mqol_lays / mqol_active / mqol_play / mqol_presence / mqol_enjoyslife: scale not given here; conditions: for mqol gooddavs / mqol_active / mqol_depressed / mqol_drinks / mqol_eats / mqol_enjoyslife / mqol_lays / mqol_moves / mqol_play / mqol_presence / mqol_sleeps: with doxorubicin+oclacitinib
Description: A prospective pilot study was conducted to evaluate whether the addition of ladarixin to doxorubicin and oclacitinib mitigates the adverse event profile associated with doxorubicin which includes fatigue, lethargy, anorexia and a general decrease in quality of life (QoL).
A cohort of 5 dogs with osteosarcoma metastatic to the lungs was studied.
In this study, dogs received doxorubicin at […] IV, oclacitinib at 0.4-0.6 mg/kg orally twice per day (label dose) and ladarixin at 15 mg/kg twice per day.
A well validated QoL for dogs with cancer was used (Giuffrida et al., J Am Vet Med Assoc, 252(9): 1073-1083) to assess changes in performance status and quality of life during the course of the study. The QoL values were reported as a numerical value and tracked over each study visit. All owners were required to maintain a diary to chart the administration of medications, note any changes in behaviour, document appetite and energy levels, and identify any other changes in constitutional changes. Owners also recorded a daily performance status (scale from 0 to 5).

[5] = judged by investigators under double-blind conditions, Chi-squared P 0.020
[6] = paclitaxel plus reparixin (Group 1) or placebo (Group 2), Chi-squared P 0.003
[7] = D0, one value per dog (Record ID 1-5)
[8] = D7, one value per dog (Record ID 1-5)
[9] = D14, one value per dog (Record ID 1-5)
[10] = D21, one value per dog (Record ID 3-5)

CC(=O)O[C@H]1C(=O)[C@@]2(C)[C@H]([C@H](OC(=O)c3ccccc3)[C@]3(O)C[C@H](OC(=O)[C@H](O)[C@@H](NC(=O)c4ccccc4)c4ccccc4)C(C)=C1C3(C)C)[C@]1(OC(C)=O)CO[C@@H]1C[C@@H]2O [paclitaxel]
Subjects with severe (Grade 3) treatment-related fatigue, number ([1]; in vivo): two | Subjects with severe (Grade 3) treatment-related fatigue, percent ([1]; in vivo): 3.3% | Fatigue as TEAE at least possibly related to study treatment: No, number of subjects [1, 5]: 43 | Fatigue as TEAE at least possibly related to study treatment: No, percent of subjects [1, 5]: 71.7% | Fatigue as TEAE at least possibly related to study treatment: Yes, number of subjects [1, 5]: 17 subjects | Fatigue as TEAE at least possibly related to study treatment: Yes, percent of subjects [1, 5]: 28.3% | Fatigue as TEAE irrespective of relationship with study treatment: Yes, number of subjects ([1]; paclitaxel 80 mg/m2 i.v. plus reparixin 1200 mg t.i.d. (Group 1) or placebo (Group 2), Chi-squared P 0.003): 26 subjects | Fatigue as TEAE irrespective of relationship with study treatment: No, number of subjects [1, 6]: 34 | Fatigue as TEAE irrespective of relationship with study treatment: No, percent of subjects [1, 6]: 56.7% | Fatigue as TEAE irrespective of relationship with study treatment: Yes, percent of subjects [1, 6]: 43.3%

CC(C)Cc1ccc([C@@H](C)C(=O)NS(C)(=O)=O)cc1 [reparixin, R-(−)-2-(4-isobutylphenyl)propionyl methansulfonamide]
Severity of fatigue in patients experiencing fatigue (NCI-Common Toxicity Criteria Grade) ([1]; all patients experiencing fatigue, mild and moderate): 1-2 Grade | Effect on incidence and severity of fatigue (in words) ([1]; paclitaxel plus reparixin compared with paclitaxel and placebo): beneficial effect on incidence and severity of cancer-related fatigue; also recorded: significantly lower incidence and severity of treatment-related fatigue

NC(=O)C[S+]([O-])C(c1ccccc1)c1ccccc1 (stereo not drawn) [modafimil]
Benefit over placebo in CRF (in words) [2]: no benefit over placebo

CNS(=O)(=O)C[C@H]1CC[C@H](N(C)c2ncnc3[nH]ccc23)CC1 [oclacitinib]
Ability to reduce severity of fatigue associated with chemotherapy (in words) [3]: not able to reduce the severity of fatigue associated with chemotherapy

C[C@@H](C(=O)NS(C)(=O)=O)c1ccc(OS(=O)(=O)C(F)(F)F)cc1 [ladarixin]
total QoL score ([4]; 5 dogs, ladarixin with doxorubicin and oclacitinib): over 100 | mqol gooddavs [4, 7]: 5 (4×) and 4 | mqol_active [4, 7]: 5 (3×) and 2 and 4 | mqol_depressed [4, 7]: 5 (3×) and 4 (2×) | mqol_drinks [4, 7]: 5 (4×) and 4 | mqol_eats [4, 7]: 5 (4×) and 4 | mqol_enjoyslife [4, 7]: 5 (4×) and 4 | mqol_lays [4, 7]: 5 (4×) and 2 | mqol_moves [4, 7]: 5 (4×) and 2 | mqol_play [4, 7]: 5 (4×) and 4 | mqol_presence [4, 7]: 5 (4×) and 4 | mqol_sleeps [4, 7]: 4 and 3 and 5 (3×) | mqol gooddavs [4, 8]: 4 and 5 (4×) | mqol_active [4, 8]: 5 | mqol_depressed [4, 8]: 4 and 5 (4×) | mqol_drinks [4, 8]: 5 | mqol_eats [4, 8]: 5 (4×) and 3 | mqol_enjoyslife [4, 8]: 5 | mqol_lays [4, 8]: 4 and 5 (4×) | mqol_moves [4, 8]: 4 and 5 (4×) | mqol_play [4, 8]: 5 (4×) and 4 | mqol_presence [4, 8]: 5 | mqol_sleeps [4, 8]: 4 (2×) and 2 and 1 and 5 | mqol gooddavs [4, 9]: 5 | mqol_active [4, 9]: 5 (3×) and 4 and 3 | mqol_depressed [4, 9]: 5 (4×) and 4 | mqol_drinks [4, 9]: 5 | mqol_eats [4, 9]: 5 | mqol_enjoyslife [4, 9]: 5 | mqol_lays [4, 9]: 5 (4×) and 4 | mqol_moves [4, 9]: 5 (2×) and 4 (3×) | mqol_play [4, 9]: 5 | mqol_presence [4, 9]: 5 (4×) and 4 | mqol_sleeps [4, 9]: 5 (2×) and 4 and 3 (2×) | mqol gooddavs [4, 10]: 5 (2×) and 4 | mqol_active [4, 10]: 5 (2×) and 2 | mqol_depressed [4, 10]: 5 (2×) and 4 | mqol_drinks [4, 10]: 5 (2×) and 4 | mqol_eats [4, 10]: 5 (2×) and 4 | mqol_enjoyslife [4, 10]: 5 (2×) and 4 | mqol_lays [4, 10]: 5 (2×) and 2 | mqol_moves [4, 10]: 4 and 3 and 5 | mqol_play [4, 10]: 5 (2×) and 4 | mqol_presence [4, 10]: 5 (2×) and 4 | mqol_sleeps [4, 10]: 5 (2×) and 3 | Effect on severity of fatigue associated with doxorubicin treatment (in words) ([4]; ladarixin added to doxorubicin and oclacitinib): reduced the severity of the known fatigue induced by the treatment with doxorubicin; also recorded: reduced the severity of the known fatigue associated to the treatment
